# Entries after “also recorded” stand apart in the source; their conditions may differ. Where two headings read alike, the source gives them in different places.
# What was measured:
# [1] = system: isoamylase of Xanthomonas maltophilia S-517; assay: Influence of inhibitors and metal salts on isoamylase activity; format: biochemical; conditions: for Inhibition by Metal Salt: Table 3, isoamylase of Xanthomonas maltophilia S-517 (Invention); for Inhibition of the enzyme of the present invention: in words
# Procedure: Measurements of activity of the enzyme of the present invention were made as follows in accordance with the method of Maruo-Kobayashi (see NIHON NOGEI KAISHI, Vol. 23, pp. 115-120 (1949).
# A reaction system consisting of 2.0 ml of a 1.0% soluble starch (glutinous rice) solution, 0.4 ml of a 0.5M acetate buffer solution (pH=3.5), and 0.4 ml of an enzyme liquid was allowed to react at 40° C. for 30 minutes. To the reaction system was added 0.4 ml of a 0.01N iodine solution. After dilution with water to 10 ml, the absorbance at 610 nm was measured. The enzyme activity on an absorbance increase of 0.1 within 1 hour was taken as 10 units.
# [2] = system: isoamylase of Pseudomonas origin; conditions: cited from earlier work; for Inhibition by Metal Salt: Table 3, isoamylase of Pseudomonas origin; for Inhibition of the enzyme derived from Pseudomonas: in words
# [3] = system: isoamylase of Xanthomonas maltophilia S-517; assay: Substrate specificity of the purified isoamylase; format: biochemical; conditions: for Substrate specificity: in words; for Initial Velocity: relative, glycogen = 100; for V: velocity of the purified isoamylase on the named substrate
compound,measurement,setting,value
[Cl][Cu][Cl] [CuCl2],Percent Inhibition,[1]; inhibitor concentration 1 mM,20.7%
[Cl-].[Na+] [NaCl],Percent Inhibition,[1],0%
"O=C1O[C@H](CO)[C@@H](O)[C@H](O)[C@H]1O [Glucono-1,5-lactone]",Percent Inhibition,[1]; inhibitor concentration 10 mM,8.0%
O=C1CCC(=O)N1Br [N-Bromosuccinimide],Percent Inhibition,[1]; inhibitor concentration 0.01 mM,100.0%
[F-].[Na+] [NaF],Inhibition by Metal Salt,[1],0%
same,Inhibition of the enzyme of the present invention,[1],not inhibited
same,Percent Inhibition,[1]; inhibitor concentration 1 mM,0%
same,Inhibition by Metal Salt,[2],19%
same,Inhibition of the enzyme derived from Pseudomonas,[2],inhibited
Glycogen,Substrate specificity,[3],actively acts
same,Initial Velocity,[3],100%
same,V,[3],6.28 × 10^-1 μmol/min/U
[Cl-].[Cl-].[Mg+2] [MgCl2],Inhibition by Metal Salt,[1],26.3%
same,Inhibition of the enzyme of the present invention,[1],inhibited
same,Percent Inhibition,[1]; inhibitor concentration 1 mM,26.3%
same,Inhibition by Metal Salt,[2],0%
same,Inhibition of the enzyme derived from Pseudomonas,[2],not inhibited
Pullulan,Substrate specificity,[3],does not act; also recorded: hardly acts
same,Initial Velocity,[3],1.3%
same,V,[3],8.45 × 10^-3 μmol/min/U
O=C(O)CN(CCN(CC(=O)O)CC(=O)O)CC(=O)O [EDTA],Percent Inhibition,[1]; inhibitor concentration 5 mM,0%
OCCS [β-Mercaptoethanol],Percent Inhibition,[1]; inhibitor concentration 10 mM,31.7%
O=[N+]([O-])[O-].[Ag+] [AgNO3],Percent Inhibition,[1]; inhibitor concentration 1 mM,98.0%
Amylopectin,Substrate specificity,[3],acts
same,Initial Velocity,[3],34.7%
same,V,[3],2.18 × 10^-1 μmol/min/U
O=C1CCC(=O)O1 [Succinic anhydride],Percent Inhibition,[1]; inhibitor concentration 5 mM,8.4%
O=C(O)c1cc[c]([Hg][Cl])cc1 [PCMB],Inhibition by Metal Salt,[1],0%
same,Inhibition of the enzyme of the present invention,[1],not inhibited
same,Percent Inhibition,[1]; inhibitor concentration 1 mM,0%
same,Inhibition by Metal Salt,[2],34%
same,Inhibition of the enzyme derived from Pseudomonas,[2],inhibited
O=[N+]([O-])c1ccc(O)c(CBr)c1 [2-Hydroxy-5-nitrobenzyl bromide],Percent Inhibition,[1]; inhibitor concentration 0.1 mM,14.3%
[Cl][Hg][Cl] [HgCl2],Percent Inhibition,[1]; inhibitor concentration 1 mM,42.2%
I[I-]I.[K+] [Potassium iodoiodide],Percent Inhibition,[1]; inhibitor concentration 1 mM,4.5%
Ammonium molybdate,Percent Inhibition,[1]; inhibitor concentration 1 mM,0%
CC(=O)I [Acetyl monoiodide],Percent Inhibition,[1]; inhibitor concentration 0.1 mM,10.1%
same,Percent Inhibition,[1]; inhibitor concentration 5 mM,34.6%
